Source: patent US12480954B2, “Method for assisting evaluation of condition of kidneys, system for evaluating condition of kidneys, and program for evaluating condition of kidneys” (Kagami Inc., priority 2019, dated 2025)

What was measured:
[1] = set-up: species or system human; conditions: in vivo
Excerpt: Blood D-serine levels and D-asparagine levels correlate more strongly with glomerular filtration rate than the conventional marker of creatinine. […] In healthy persons without presence of disease, blood D-serine level is kept to within a very narrow range of about 1 to 2% of total serine, whereas its presence in urine reaches 30 to 60%. […] Moreover, in healthy persons without presence of disease, blood D-asparagine level is kept to within a very narrow range of about 0.1 to 0.6% of total asparagine, whereas its presence in urine reaches 20 to 50%.

[2] = human, in vivo
Excerpt: The test protocol was approved by the ethics committee of the national research and development agency: National Institutes of Biomedical Innovation, Health and Nutrition, and written informed consent was obtained from all of the test subjects.
[formula] • [UD-Ser represents urine D-serine level, PD-Ser represents blood D-serine level, UCre represents urine creatinine level and PCre represents blood creatinine level.]
A retrospective study was used for primary aldosteronism (PA), myeloma kidney […], diabetic nephropathy (DM) and IgA nephropathy (IGAN), from a cohort of kidney disease patients admitted to the Department of Nephrology, Osaka University Hospital for diagnosis and/or treatment from 2016 to 2017. Since IgA nephropathy test subjects had blood pressure above the reference range, they were given an angiotensin II receptor antagonist (ARB) as an antihypertensive drug. Separately, 15 healthy volunteers were recruited as non-kidney disease subjects by the National Institutes of Biomedical Innovation, Health and Nutrition. The test protocol was approved by the ethics committee of each facility, and written informed consent was obtained from all of the patients.
Sample preparation from human blood plasma and urine was carried out as follows: First a 20-fold volume of methanol was added to and completely mixed with the blood plasma. After centrifugation, 10 μL of supernatant obtained from the methanol homogenate was transferred to a brown tube and dried under reduced pressure. To the residue there were added 20 μL of 200 mM sodium borate buffer (pH 8.0) and 5 μL of fluorescent labeling reagent (40 mM 4-fluoro-7-nitro-2,1,3-benzooxadiazole (NBD-F) in anhydrous MeCN), and the mixture was then heated at 60° C. for 2 minutes. The reaction was suspended by addition of 75 μL of aqueous 0.1% TFA (v/v), and 2 μL of the reaction mixture was supplied to two-dimensional HPLC.
The amino acid optical isomers were quantified using the following two-dimensional HPLC system. NBD derivatives of the amino acids were separated and eluted using a reversed-phase column (KSAA RP, 1.0 mm i.d.×400 mm; Shiseido Corp.), in the mobile phase (5 to 35% MeCN, 0 to 20% THF, 0.05% TFA). The column temperature was 45° C. and the mobile phase flow rate was 25 μL/min. The separated amino acid fraction was separated off using a multi loop valve, and optically resolved in a continuous manner with a chiral column (KSAACSP-001S, 1.5 mm i.d.×250 mm; Shiseido Corp.). The mobile phase used was a MeOH/MeCN mixed solution containing citric acid (0 to 10 mM) or formic acid (0 to 4%), according to the amino acid retention. NBD-amino acids were detected by fluorescence detection at 530 nm using excitation light of 470 nm. The NBD-amino acid retention time was identified from standard amino acid optical isomers and quantified by a calibration curve.
The blood urine D-serine level and blood urine D-asparagine level and creatinine level were calculated by substitution into the following formulas.
[formula] • [where • UD-Ser represents the level of D-serine in the urine, • PD-Ser represents the level of D-serine in the blood, • UCre represents the level of creatinine in the urine, and • PCre represents the level of creatinine in the blood]
[formula] • [where • UD-Asn represents the level of D-asparagine in the urine, • PD-Asn represents the level of D-asparagine in the blood, • UCre represents the level of creatinine in the urine, and • PCre represents the level of creatinine in the blood] Evaluation and Assessment of Pathology

[3] = D-serine excretion rate monitored before and after therapeutic intervention in a systemic lupus erythematosus patient; format: in vivo, human; conditions: SLE patient
Protocol: After obtaining written informed consent from a person admitted to Osaka University Hospital with systemic lupus erythematosus, with ethical approval from the same University, their blood and urine were periodically sampled. The values rapidly worsened, with serum creatinine increasing from a level of 0.57 mg/dL 90 days before admission to 11.68 mg/dL and urine protein concentration increasing from 0.5 g/g Cre to 4.0 g/g Cre, while blood pressure was 122/65 mmHg, HR was 64 bpm, percutaneous arterial oxygen saturation was 100% (indoor air) and body temperature was 36.5° C. Mouth ulcers, alopecia and retinal hemorrhage were also noted, but no abnormal lung sounds, heart sounds or lower extremity edema was observed. Rapidly progressive glomerulonephritis was suspected in clinical testing, with blood hemoglobin of 4.6 g/dL, normal level complement of C3: 88 mg/dL and C4: 21 mg/dL, positive anti-dsDNA antibody of 13.0 IU/mL1, and P-ANCA of 182.0 U/mL, and therefore plasma exchange (PE) sessions were continued, and kidney biopsy was performed. Crescent-shaped cells were found in 79% of the glomeruli, fibrous crescent-shaped cells were found in 13%, and the glomerular capillaries were thickened with foam and spikes, although no glomerulosclerosis was observed. […] Tubular atrophy was localized and moderate. In immunofluorescent staining, the granular glomerular capillary walls were positive overall for IgG, IgA, IgM, C3, C4 and C1q. Diagnosis was latent ANCA-related crescent-shaped glomerular nephritis, with lupus nephritis class V. Treatment was by prednisolone pulse therapy (3 days, 1 g), followed by oral prednisolone (40 mg/day), intermittent pulse intravenous cyclophosphamide therapy (500 mg/m^2) and mycophenolate mofetil (MMF, 500 mg/day). Eight series of plasma exchange was also carried out. In response to this treatment, the serum creatinine level fell to 0.72 mg/dL, but the urine protein level persisted. […] The harvested blood and urine samples were prepared in the same manner as Example 1, and the D-serine was quantified while also calculating the D-serine excretion rate.

excreted [1] | logarithm of reference values of excretion rate [2] | mean logarithmic value of excretion rate [2] | reference values of excretion rate, mean with standard deviation of ±1.96 [2] | reabsorbed in the renal tubules [1] | SMILES | other results
50-80% | 3.95-4.37 | 4.16 | 51.65-78.74% |  | NC(=O)C[C@@H](N)C(=O)O [D-asparagine] | 
50-80% | 3.75-4.50 | 4.12 | 42.46-89.66% |  | N[C@H](CO)C(=O)O [D-serine] | D-serine excretion rate ([3]; after 48 hours (so in the source)): 41.7%; D-serine excretion rate ([3]; after 8 days): 0; D-serine excretion rate ([3]; after 12 days): 0; D-serine excretion rate ([3]; after 16 days): 0; D-serine excretion rate ([3]; after 22 days): 0; D-serine excretion rate ([3]; after 29 days): 58.9%; D-serine excretion rate ([3]; after 34 days): 87.6%; D-serine excretion rate ([3]; immediately after start of treatment): 0
 |  |  |  | about 99% | NC(=O)C[C@H](N)C(=O)O [L-asparagine] | 
 |  |  |  | about 99% | N[C@@H](CO)C(=O)O [L-serine] | 
